We go through six molecules from patent publication US7247627B2, “Salts and polymorphs of a pyrrole-substituted indolinone compound” (Pharmacia & Upjohn Company, priority 2003, dated 2007).

A short description of data set [1]: Crystal form stability by PXRD (Example 3). The class given is physicochemical. Conditions: 40° C. and 75% relative humidity. On the procedure: Crystal form stability was assessed for samples of 5-[(Z)-(5-fluoro-2-oxo-1,2-dihydro-3H-indol-3-ylidene)methyl]-N-[(2S)-2-hydroxy-3-morpholin-4-ylpropyl]-2,4-dimethyl-1 H-pyrrole-3-carboxamide maleate salt, polymorph Form 1, polymorph Form 2, and a mixture of polymorph Form 1 and Form 2. In each case, a sample of the substance was placed into a controlled temperature and humidity stability chamber at 40° C. and 75% relative humidity. Samples were taken several times during the duration of the test and analyzed for qualitative changes in the PXRD patterns.

A short description of data set [2]: Six-week stability study, HPLC chemical and enantiomeric stability, PXRD (Example 4). The class given is physicochemical. The note with it: for Total Impurity (%): closed vial. Here is the method: A six-week stability study was carried out on samples of 5-[(Z)-(5-fluoro-2-oxo-1,2-dihydro-3H-indol-3-ylidene)methyl]-N-[(2S)-2-hydroxy-3-morpholin-4-ylpropyl]-2,4-dimethyl-1H-pyrrole-3-carboxamide maleate salt, polymorph Form 1. The compound was exposed for 6 weeks, closed vial, at three stability test conditions: 5° C., 25° C./60% relative humidity and 40° C./75% relative humidity, and analyzed for chemical and enantiomeric stability as described in Example 2, except that the HPLC instrument was an Agilent 1100 series.
The percent recovery was calculated based on the average response factor obtained from a reference standard throughout the HPLC run, and considering the E isomer as the compound and not as an impurity. […] The isomerization is often an artifact of sample preparation and analysis. […] The values shown in the table are averages of several injections.

Data set [3] is described as follows: TGA of six-week stability samples. In kind it is physicochemical. On the procedure:
TGA measurements were performed using a TA Instruments model 2950 Hi-Res analyzer with a Thermal Analyst 5000 controller. Samples were placed onto a tared platinum hanging pan and heated to at least 165° C. at a rate of 10° C./min. Dry nitrogen was used as a purge gas.
To determine the thermal stability and residual solvent content, the same samples were analyzed by DSC and TGA.

A short description of data set [4]: Hygroscopicity by dynamic moisture sorption gravimetry (DMSG). In kind it is physicochemical. Conditions: for Water Uptake at 80% RH (wt. %): DMSG, 25° C., 80% relative humidity. On the procedure:
In one embodiment, the invention provides a non-hygroscopic salt of 5-[(Z)-(5-fluoro-2-oxo-1,2-dihydro-3H-indol-3-ylidene)methyl]-N-[(2S)-2-hydroxy-3-morpholin-4-ylpropyl]-2,4-dimethyl-1H-pyrrole-3-carboxamide. Hygroscopicity is determined by dynamic moisture sorption gravimetry (DMSG) using a controlled atmosphere microbalance at a temperature of 25° C. Samples are analyzed over a relative humidity range of from 0 to 90% in 3% steps. Each step is brought to equilibrium before moving to the next step, with equilibrium assessed as a weight change of less than 0.002 mg (0.02%) for five consecutive points at 1 point per 120 seconds.
Several salts of 5-[(Z)-(5-fluoro-2-oxo-1,2-dihydro-3H-indol-3-ylidene)methyl]-N-[(2S)-2-hydroxy-3-morpholin-4-ylpropyl]-2,4-dimethyl-1H-pyrrole-3-carboxamide were produced and analyzed for hygroscopicity. Hygroscopicity was determined by dynamic moisture sorption gravimetry (DMSG) using a controlled atmosphere microbalance at a temperature of 25° C. Samples were analyzed over a relative humidity range of from 0 to 90% in 3% steps, in a humidity profile of […], where the initial value of 36% reflects the approximate initial equilibrated relative humidity (not specifically measured). Each step was brought to equilibrium before moving to the next step, with equilibrium assessed as a weight change of less than 0.001 mg (0.01%) or 0.002 mg (0.02%) for five consecutive points at 1 point per 120 seconds. The water uptake at 80% relative humidity (RH) was selected for comparison between the salts. The 80% RH values for each salt are shown in Table 5, and the right column of the table identifies the corresponding Figure showing the complete DMSG scan. A range of values given for the water uptake at 80% reflects hysteresis in the 0→90% and 90→0% scans.

Data set [5] deals with hepatic cytochrome P450. Put plainly: Metabolism in preclinical species and in human hepatocytes and microsomes. The class given is in vitro ADME. Conditions: preclinical species (in vivo and in vitro). On the procedure:
The primary site of metabolism is the morpholinyl group. Three metabolites have been identified in vivo following single oral administration (100 mg/kg) to cynomolgus monkeys (FIG. 8). These 3 metabolites, which were detected at <16% relative abundance to parent in monkey plasma, were also the major products observed in human microsomes and hepatocytes. Relative abundance was determined from monkey plasma following a single dose of 5-[(Z)-(5-fluoro-2-oxo-1,2-dihydro-3H-indol-3-ylidene)methyl]-N-[(2S)-2-hydroxy-3-morpholin-4-ylpropyl]-2,4-dimethyl-1H-pyrrole-3-carboxamide (100 mg/kg) and based on (AUC0-12 metabolite/AUC0-12 parent)×100, estimated from the characteristic indole UV absorption at 440 nm. The N,O-dealkylation metabolite has been confirmed via nuclear magnetic resonance (NMR). […] The morpholinyl lactam metabolite is the product of oxygenation-dehydrogenation and has also been confirmed via NMR. The morpholinyl hemi-aminal metabolite is an unstable metabolite identified via an iminium-ion trapping experiment. Relative abundance was determined by UV response at 428 nm.

A short description of data set [6]: Solid-state properties of the free base form. The class given is physicochemical.
Data set [7] has as its system solid and hematopoietic cancer xenograft models. Conditions: diverse preclinical solid and hematopoietic cancer xenograft models; cited from earlier work.
[8] abbreviates: 6-week sample stored at 25° C./60% RH.
Where [9] appears, read: 6-week sample stored at 40° C./75% RH.

As to `Cc1[nH]c(/C=C2\C(=O)Nc3ccc(F)cc32)c(C)c1C(=O)NC[C@H](O)CN1CCOCC1` [Form 1, 5-[(Z)-(5-fluoro-2-oxo-1,2-dihydro-3H-indol-3-ylidene)methyl]-N-[(2S)-2-hydroxy-3-morpholin-4-ylpropyl]-2,4-dimethyl-1H-pyrrole-3-carboxamide], the “crystal form changes in the PXRD pattern” value in data set [1] (163 days) is listed as “no crystal form changes were observed”. In data set [2] (6-week samples maintained at 40° C./75% RH), the “crystalline changes by PXRD compared to a control sample” value is recorded as “no crystalline changes”. In data set [2] (6-week stability samples, any samples), the chiral transformation entry was “no chiral transformation observed”. The “Total Impurity (%)” value in data set [2] (6 weeks, 5° C. ± 3° C.) was determined as 1.67%; in data set [2] (6 weeks, 25° C. ± 2° C., 60% RH), 1.85%; in data set [2] (6 weeks, 40° C. ± 2° C.C, 76% RH), 1.86%. Further, the “assay of the 6-week stability samples” value in data set [2] (all three stability conditions) is given as 97.1–98.5%. For the same molecule, in data set [2] (samples held at 80° C. for 2 weeks), the “Enantiomeric stability, amount of R isomer” value is “no increase in the amount of R isomer observed”. For the same molecule, the stability entry in data set [2] (under all stability conditions investigated, 6 weeks) is “stable”. Besides, the entries for the “TGA Wt. Loss (%), 25° C.–125° C.” value in data set [3] (6-week sample stored at 5° C.), in data set [3] (setting [8]) and in data set [3] (setting [9]) were 1.44%, 1.36% and 1.66%, respectively. For the same molecule, the results for the “TGA Wt. Loss (%), 25° C.–275° C.” value in data set [3] (6-week sample stored at 5° C.), in data set [3] (setting [8]) and in data set [3] (setting [9]) were 23.15%, 24.36% and 20.61%, respectively. Also, the “TGA significant weight loss at 207° C.” value in data set [3] (6-week samples) is recorded as 21-23%. Moreover, the “TGA weight loss between 25–125° C.” value in data set [3] (6-week samples) was “less than 2%”.

In the case of `Cc1[nH]c(/C=C2\C(=O)Nc3ccc(F)cc32)c(C)c1C(=O)NC[C@H](O)CN1CCOCC1` [mixed Form 1/Form 2, 5-[(Z)-(5-fluoro-2-oxo-1,2-dihydro-3H-indol-3-ylidene)methyl]-N-[(2S)-2-hydroxy-3-morpholin-4-ylpropyl]-2,4-dimethyl-1H-pyrrole-3-carboxamide], in data set [1] (6 weeks), the “crystal form changes in the PXRD pattern” value was “no crystal form changes were observed”.

In the case of `Cc1[nH]c(/C=C2\C(=O)Nc3ccc(F)cc32)c(C)c1C(=O)NC[C@H](O)CN1CCOCC1` [Form 2, 5-[(Z)-(5-fluoro-2-oxo-1,2-dihydro-3H-indol-3-ylidene)methyl]-N-[(2S)-2-hydroxy-3-morpholin-4-ylpropyl]-2,4-dimethyl-1H-pyrrole-3-carboxamide], in data set [4] (listed as Maleate), the “Water Uptake at 80% RH (wt. %)” value worked out at 0.8 wt. %. In data set [1] (134 days), the “crystal form changes in the PXRD pattern” value is “no crystal form changes were observed”.

Consider `Cc1[nH]c(/C=C2\C(=O)Nc3ccc(F)cc32)c(C)c1C(=O)NC[C@H](O)CN1CCOCC1` [Mandalate, 5-[(Z)-(5-fluoro-2-oxo-1,2-dihydro-3H-indol-3-ylidene)methyl]-N-[(2S)-2-hydroxy-3-morpholin-4-ylpropyl]-2,4-dimethyl-1H-pyrrole-3-carboxamide], for which the “Water Uptake at 80% RH (wt. %)” value in data set [4] is given as 5–6 wt. %.

Consider `Cc1[nH]c(/C=C2\C(=O)Nc3ccc(F)cc32)c(C)c1C(=O)NC[C@H](O)CN1CCOCC1` [5-[(Z)-(5-fluoro-2-oxo-1,2-dihydro-3H-indol-3-ylidene)methyl]-N-[(2S)-2-hydroxy-3-morpholin-4-ylpropyl]-2,4-dimethyl-1H-pyrrole-3-carboxamide], for which the metabolism pathway entry in data set [5] is “proceeds primarily through an oxidative pathway mediated by hepatic cytochrome P450”. Besides, in data set [6], the “chemical and enantiomeric stability” value is “chemically and enantiomerically stable”; the hygroscopicity entry is on record as “relatively non-hygroscopic”. In addition, the anti-tumor activity entry in data set [7] is given as “has anti-tumor activity”.

Consider `Cc1[nH]c(/C=C2\C(=O)Nc3ccc(F)cc32)c(C)c1C(=O)NC[C@H](O)CN1CCOCC1` [Tosylate, 5-[(Z)-(5-fluoro-2-oxo-1,2-dihydro-3H-indol-3-ylidene)methyl]-N-[(2S)-2-hydroxy-3-morpholin-4-ylpropyl]-2,4-dimethyl-1H-pyrrole-3-carboxamide], for which the “Water Uptake at 80% RH (wt. %)” value in data set [4] worked out at 7 wt. %. Moreover, in data set [4] (at about 65% relative humidity), the Uptake of water entry is on record as “about 2.5%”.
